According to US7927799B2, “Inhibitors of PGHS-2Transactivator activity” (Ordway Research Institute, priority 2005, dated 2011):

Assays:
human PGHS-2 promoter = experiment: PGHS-2 promoter (-831/+123) luciferase reporter assay; format: cell-based; settings: UM-SCC-22B cells, 12 h; PMA 100 nM, PD98059 10 μM, PDTC 100 μM, SB203580 10 μM
Procedure: UM-SCC-22B cells were transfected with the −831/+123 PGHS-2 promoter constructs fused to a luciferase reporter or the luciferase reporter with the SV 40 promoter (pGL2 promoter).
Aliquots of cells were treated with PMA (100 mM), PD98059 (10 μM), PDTC (100 μM), or SB203580 (10 μM) for 12 h. Cultures were co-transfected with β-galactosidase reporter plasmids, and luciferase activity, corrected for β-galactosidase activity, measured and expressed as the mean±SD of triplicate culture determinations from three experiments.
To assess PGHS-2 promoter activity in UM-SCC-22B cells, the proximal −831/+123 base pairs of the human PGHS-2 promoter were fused to a luciferase reporter (pGHS-2 LUC) (Cao et al., 1999). This PGHS-2 reporter or SV40 LUC (pGL2 promoter) were transfected into near confluent UM-SCC-22B tumor cells.

MDM2 promoter = experiment: Chromatin immunoprecipitation (ChIP) of PGHS-2 binding to the MDM2 promoter; format: cell-based, human; settings: 12 h, PDTC 100 μM, PD98059 10 μM
Procedure: (§1) A: ChIP was performed with PGHS-2 antibody, using UM-SCC-22B (22B) cells constitutively expressing PGHS-2, and in the absence (Con) or presence of PMA (100 nM), PDTC (100 μM) or PD98059 (PD, 10 μM) for 12 h. Input and immunoprecipitated (IP) DNA was amplified by using primers for MDM2, PGHS-2 promoter and PGHS-2 ORF, and the amplified DNAs were then separated by electrophoresis and scanned with the VersaDOC™ Imaging System.
(§2) In ChIP experiments in prostate cancer cells, using monoclonal anti-PGHS-2, we compared the amount of immunoprecipitable PGHS-2 promoter sequence with the amount of input DNA for each sample; a PGHS-2 ORF primer served as a negative control. […] PGHS-2 also bound to the promoter region of MDM2.
Chromatin immunoprecipitation was performed as described by Luo et al. (1998) and Braunstein et al. (1996). Aliquots of cells (6 ×10^6) in monolayers were treated with 1% formaldehyde for 15 min at room temperature to effect crosslinking. Monolayers were then washed twice with PBS. […] Cell lysates were sonicated to yield chromatin fragments of approximately 600 bp, as assessed by agarose gel electrophoresis. […] Relative levels of DNA were determined with QuantifyOne software (Bio-Rad Laboratories, Inc., Hercules, Calif.).

PGHS-2 promoter = experiment: Chromatin immunoprecipitation (ChIP) of PGHS-2 binding to the PGHS-2 promoter; format: cell-based, human; settings: 12 h, PMA 100 nM, PDTC 100 μM, PD98059 10 μM
Procedure: as §1, §2
Chromatin immunoprecipitation was performed as described by Luo et al. (1998) and Braunstein et al. (1996). Aliquots of cells (6 ×10^6) in monolayers were treated with 1% formaldehyde for 15 min at room temperature to effect crosslinking. Monolayers were then washed twice with PBS. Extracts were prepared by scraping cells in 1 ml of buffer (150 mM NaCl, 1% NP-40, 0.5% DOC, 0.1% SDS, 50 mM Tris [pH 8.0], 5 mM EDTA) that contained the protease inhibitors leupeptin (10 µg/ml) and pepstatin A (10 µg/ml), phosphatase inhibitors (50 mM NaF and 0.2 mM sodium orthovanadate) and the deacetylase inhibitor, trichostatin A, 5 µM (Calbiochem, San Diego, Calif.). Cell lysates were sonicated to yield chromatin fragments of approximately 600 bp, as assessed by agarose gel electrophoresis. Immunoprecipitation was carried out with anti-p53 (Santa Cruz, Santa Cruz, Calif.), anti-phosphoSer392-p53 (Cell Signaling, Beverly, Mass.), or anti-acetylated p53 (Upstate Biotechnology, Lake Placid, N.Y.). For studies of the PGHS-2 promoter, anti-PGHS-2 (Cayman) was used. […] Relative levels of DNA were determined with QuantifyOne software (Bio-Rad Laboratories, Inc., Hercules, Calif.).

[1] = tested on: PGHS-2 protein expression; experiment: PGHS-2 protein by immunoblotting of nuclear/cytosol proteins; format: cell-based, human; settings: 12 h, PMA 100 nM; for PGHS-2 protein / PGHS-2 expression: confluent UM-SCC-22B cells, PD98059 10 μM, SB203580 10 μM, PDTC 100 μM
Procedure: A: Effects of PKC activation or signaling pathway inhibitors on PGHS-2 expression. UM-SCC 22B cells were allowed to grow to confluence in 10 cm culture dishes, and then received either control medium (lane 1) or medium containing PMA (lane 2, 100 nM), PD98059 (PD, lane 3, 10 μM), SB203580 (SB, lane 4, 10 μM) or PDTC (lane 5, 100 μM) for 16 h. Cell monolayers were harvested and 40 μg nuclear protein were subjected to immunoblotting with anti-human PGHS-2 (upper panel) or anti-pMAPK (pERK1/2, lower panel). […] Results shown are the means±SD from three similar experiments.
Fractionation of cells in a microfuge and preparation of nucleoproteins was by a previously reported method (Lin et al., 2002). Nuclear extracts were prepared by resuspension of the crude nuclear fraction in high salt buffer (420 mN NaCl, 20% glycerol) at 4° C. with rocking for 1 h. The supernatants were then collected after subsequent centrifugation at 4° C. and 13,000 rpm for 10 min.

PGE2 production = PGE2 production in cells by ELISA; format: cell-based, human; settings: DU145 and UM-SCC-22B cells, 12 h; PMA 100 nM, NS398, indomethacin, PD98059 each 10 μM
Procedure: Cells were plated in 48-well culture dishes and treated or without PMA (100 nM), NS398 (10 μM), indomethacin (10 μM) or PD98059 (10 μM) for 12 h. Cells were transferred to 200 μl PBS for the last 30 min. Samples were then collected and subjected to quantitative analysis of PGE2 by ELISA. The results are shown as mean±SD of results from three representative studies.

[2] = tested on: PGHS-1 protein expression; experiment: PGHS-1 protein by immunoblotting; format: cell-based, human; settings: PMA 100 nM, 12 h; cancer cell lines
Procedure: FIG. 2. Expression of PGHS-2 in ECV 304, DU145 and UM-SCC-22B (22B) cells A: Constitutive expression of PGHS-2 protein in ECV 304, DU145 and UM-SCC-22B cells. Cells were grown to confluence in 10 cm dishes. Monolayers were treated with or without PMA (100 nM) for 12 h; nuclear proteins were then harvested and subjected to immunoblotting with antihuman PGHS-2 (panel 1) or -PGHS-1 (panel 2).
(§3) The techniques used were those previously described by our laboratory (Lin et al., 1999). In brief, nucleoproteins were separated on discontinuous SDS-PAGE (9% gels) and then transferred by electroblotting to Immobilon membranes (Millipore, Bedford, Mass.). After blocking with 5% milk in Tris-buffered saline containing 0.1% Tween, the membranes were incubated with various antibodies overnight. Secondary antibodies were either goat anti-rabbit IgG (1:1000) or rabbit anti-mouse IgG (1:1000) (Dako, Carpenteria, Calif.), depending upon the origin of the primary antibody. Immunoreactive proteins were detected by chemiluminescence.

[3] = tested on: PGHS-2 / p300 association; experiment: Co-immunoprecipitation of nuclear PGHS-2 with p300; format: cell-based, human; settings: UM-SCC-22B cells, PMA 100 nM, 12 h
Procedure: (§4) Confluent UM-SCC-22B (22B) cells were treated with PMA, 100 nM, or solvent alone for 12 h. Cell nuclei were prepared (Lin et al., 1999) and immunoprecipitated with antibody to PGHS-2. Immunoprecipitated proteins were separated by gel electrophoresis and immunoblotted with antibody to c-Fos, MDM2 or p300. Shown are representative immunoblots from 3 similar experiments. Co-localization of c-Fos with PGHS-2 is seen in nuclei of UM-SCC-22B cells.
as §3

PGHS-2 mRNA = PGHS-2 mRNA levels by RT-PCR; format: cell-based, human; settings: PMA 100 nM, 8 h; ECV 304, DU145 and UM-SCC-22B cells
Procedure: B: PGHS-2 mRNA levels in ECV 304, DU145 and UM-SCC-22B cells. Confluent cells were treated with or without PMA (100 nM) for 8 h. Total RNA samples were harvested and subjected to RT-PCR using PGHS-2 or GAPDH primers (top and bottom panels, respectively).

[4] = tested on: PGHS-2 / MDM2 association; experiment: Co-immunoprecipitation of nuclear PGHS-2 with MDM2; format: cell-based, human; settings: UM-SCC-22B cells, PMA 100 nM, 12 h
Procedure: as §4, §3

[5] = tested on: PGHS-2 / c-Fos association; experiment: Co-immunoprecipitation of nuclear PGHS-2 with c-Fos; format: cell-based, human; settings: UM-SCC-22B cells, PMA 100 nM, 12 h
Procedure: as §4, §3

Structure (SMILES)	PGHS-2 promoter activity (luciferase) (human PGHS-2 promoter)	binding of PGHS-2 to the MDM2 promoter (MDM2 promoter)	binding of PGHS-2 to the PGHS-2 promoter (PGHS-2 promoter)	PGHS-2 protein / PGHS-2 expression [1]	PGE2 production (PGE2 production)	also measured
S=C(S)N1CCCC1 [PDTC, pyrrolidine dithiocarbamate]	inhibited	inhibited	inhibited	minimally inhibited		
COc1ccc2c(c1)c(CC(=O)O)c(C)n2C(=O)c1ccc(Cl)cc1 [indomethacin]					decreased PGE2 production in cancer cells to basal levels	
CS(=O)(=O)Nc1ccc([N+](=O)[O-])cc1OC1CCCCC1 [NS398]					decreased PGE2 production in cancer cells to basal levels	
CCCCCCCCCCCCCC(=O)O[C@@H]1[C@@H](C)[C@@]2(O)[C@@H](C=C(CO)C[C@]3(O)C(=O)C(C)=C[C@@H]23)[C@@H]2C(C)(C)[C@]12OC(C)=O [PMA, phorbol-12-myristate-13-acetate]	only negligibly increased		minimal increases	increase	did not significantly increase	abundance of PGHS-1 [2]: no effect; nuclear association of PGHS-2 with p300 [3]: little increase; abundance of PGHS-2 mRNA (PGHS-2 mRNA): increased; nuclear association of PGHS-2 with MDM2 [4]: little increase; nuclear association of PGHS-2 with c-Fos [5]: marked increase; cytosolic PGHS-2 [1]: increased; abundance of PGHS-2 protein in nuclei ([1]; ECV 304, DU145 and UM-SCC-22B cells): increased
COc1cccc(-c2cc(=O)c3ccccc3o2)c1N [PD98059]	inhibited	inhibited	inhibited	decreased to very low levels	decreased PGE2 production in cancer cells to basal levels	
C[S+]([O-])c1ccc(-c2nc(-c3ccncc3)c(-c3ccc(F)cc3)[nH]2)cc1 (stereo not drawn) [SB203580]	inhibited			minimally inhibited		
